# Data reported in patent EP1268431B1 (Wyeth, priority 2000, dated 2001).
# pIC50: −log10 of the molar value. “And” between values parts separate entries of the source, which are not always exact repeats. Equal values may be shown once. Read-outs that look alike come from different tables or passages of the source.
# Columns and labels:
# c-Src = biological target: T1, c-Src (Homo sapiens, UniProt P12931); experiment: c-Src Kinase Assay (ELISA format); format: biochemical
# T1 construct: purchased Upstate Biotechnologies
# T1 sequence (P12931 whole entry, species assumed): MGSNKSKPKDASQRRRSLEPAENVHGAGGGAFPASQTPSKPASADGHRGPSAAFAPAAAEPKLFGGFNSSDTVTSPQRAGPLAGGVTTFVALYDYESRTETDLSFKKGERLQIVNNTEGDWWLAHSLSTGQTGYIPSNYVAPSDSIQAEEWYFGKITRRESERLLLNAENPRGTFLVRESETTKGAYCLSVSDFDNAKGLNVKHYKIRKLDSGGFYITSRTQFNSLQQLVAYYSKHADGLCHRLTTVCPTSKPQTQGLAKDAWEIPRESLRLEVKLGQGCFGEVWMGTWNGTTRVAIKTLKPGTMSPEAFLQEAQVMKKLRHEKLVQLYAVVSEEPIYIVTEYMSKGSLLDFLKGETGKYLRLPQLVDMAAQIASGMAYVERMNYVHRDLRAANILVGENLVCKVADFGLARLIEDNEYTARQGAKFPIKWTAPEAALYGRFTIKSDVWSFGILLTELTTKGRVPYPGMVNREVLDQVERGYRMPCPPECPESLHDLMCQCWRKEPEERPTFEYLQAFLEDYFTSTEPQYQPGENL
# Protocol: Inhibitors of Src (partially purified preparation purchased from Upstate Biotechnologies) tyrosine kinase activity are analyzed in an ELISA format. […] Horseradish Peroxidase (HRP)-conjugated anti-phosphotyrosine is used to detect phosphorylated peptide via a color reaction. Conditions recommended by the manufacturer are employed.
# Reaction conditions: Five microliter aliquots of each compound prepared fresh at the time of the assay are added as a solution in 10mM HEPES pH 7.5, 10% DMSO to the reaction well. Thirty-five microliters of reaction mix containing Src, buffer and peptide/bovine serum albumin mix are added to the compound wells and incubated at 30°C for 10 minutes (reaction buffer: 50mM TrisHCl pH 7.5, 10mM MgCl2, 0.1mM EGTA, 0.5mM Na3VO4). The reaction is started by addition of 10 microliters of ATP, incubated at 30°C for 1 hour, and stopped by addition of 20 microliters of 0.5M EDTA. The reaction mixture with the phosphorylated peptide is then transferred to a streptavidin-coated microtiter plate (provided in the kit) and allowed to bind for 20 minutes. Unbound peptide and reaction mixture is decanted and the plate is washed with PBS six times. HRP-conjugated phosphotyrosine antibody supplied in the kit is incubated with the plate for one hour, then decanted. The plate is again washed with PBS six times.
# Activity is determined as % inhibition as calculated by the formula: (1 - Abs/Abs(max)) x 100 = % inhibition.
# [1] = test system: Rat2 fibroblasts stably transformed with a plasmid containing a CMV promotor controlled v-Src/Hu c-Src fusion gene; experiment: Anchorage Independent Src-transformed Fibroblast Proliferation Assay
# [2] = Rattus norvegicus, Rat2, 120 h, read-out: anch-indep src-tx fib IC50, suspension growth, MTS on Day 5
# [3] = read-out: anch-indep src-tx fib IC50, suspension growth, MTS on Day 5
Compound,pIC50 (c-Src),"pIC50 [1, 2]","pIC50 [1, 3]",inhibition at 0.1 µM (c-Src; at 100 nM)
"COc1ccc(/C=C/c2ccc3c(Nc4cc(OC)c(Cl)cc4Cl)c(C#N)cnc3c2)cc1 [Example 54, 4-(2,4-Dichloro-5-methoxyanilino)-7-[(E)-2-(4-methoxyphenyl)ethenyl]-3-quinolinecarbonitrile]",7.21,< 5.00,–,–
"COc1cc(Nc2c(C#N)cnc3cc(-c4ccc(CNCCS(=O)(=O)c5ccccc5)o4)ccc23)c(Cl)cc1Cl [Example 58, 4-(2,4-Dichloro-5-methoxyanilino)-7-[5-({[2-(phenylsulfonyl)ethyl]amino}methyl)-2-furyl]-3-quinolinecarbonitrile]",7.96,5.29,–,–
"COc1cc(Nc2c(C#N)cnc3cc(-c4cncn4CCN4CCOCC4)ccc23)c(Cl)cc1Cl [Example 64, 4-(2,4-Dichloro-5-methoxyanilino)-7-{1-[2-(4-morpholinyl)ethyl]-1H-imidazol-5-yl}-3-quinolinecarbonitrile]",6.02,< 5.00,–,–
"COc1cc(Nc2c(C#N)cnc3cc(-c4cscc4CN4CCOCC4)ccc23)c(Cl)cc1Cl [Example 65, 4-(2,4-Dichloro-5-methoxyanilino)-7-[4-(4-morpholinylmethyl)-3-thienyl]-3-quinolinecarbonitrile]",6.70,< 5.00,–,–
"COc1cc(Nc2c(C#N)cnc3cc(-c4ccsc4CN4CCOCC4)ccc23)c(Cl)cc1Cl [Example 66, 4-(2.4-Dichloro-5-methoxyanilino)-7-[2-(4-morpholinylmethyl)-3-thienyl]-3-quinolinecarbonitrile]",6.42,< 5.00,–,–
"COc1cc(Nc2c(C#N)cnc3cc(-c4ccc(N5CCOCC5)cc4)ccc23)c(Cl)cc1Cl [Example 67, 4-(2,4-Dichloro-5-methoxyanilino)-7-[4-(4-morpholinyl)phenyl]-3-quinolinecarbonitrile]",8.52 and 8.31,6.96,–,–
"COc1cc(Nc2c(C#N)cnc3cc(-c4ccc(C=O)n4C)ccc23)c(Cl)cc1Cl [Example 69, 4-(2,4-Dichloro-5-methoxyanilino)-7-(5-formyl-1-methyl-1H-pyrrol-2-yl)-3-quinolinecarbonitrile]",6.96,< 5.00,–,–
"COc1cc(Nc2c(C#N)cnc3cc(-c4ccc(CN5CCOCC5)n4C)ccc23)c(Cl)cc1Cl [Example 70, 4-(2,4-Dichloro-5-methoxyanilino)-7-[1-methyl-5-(4-morpholinylmethyl)-1H-pyrrol-2-yl]-3-quinolinecarbonitrile]",7.60,5.22,–,–
"COc1cc(Nc2c(C#N)cnc3cc(-c4ccc(CN5CCN(C)CC5)n4C)ccc23)c(Cl)cc1Cl [Example 71, 4-(2,4-Dichloro-5-methoxyanilino)-7-{1-methyl-5-[(4-methyl-1-piperazinyl)methyl]-1H-pyrrol-2-yl}-3-quinolinecarbonitrile]",7.59 and 7.62,5.17,–,–
"COc1cc(Nc2c(C#N)cnc3cc(-c4ccc(CNCCS(=O)(=O)c5ccccc5)n4C)ccc23)c(Cl)cc1Cl [Example 72, 4-(2,4-Dichloro-5-methoxyanilino)-7-[1-methyl-5-({[2-(phenylsulfonyl)ethyl]amino}methyl)-1H-pyrrol-2-yl]-3-quinolinecarbonitrile]",7.11,< 5.00,–,–
"COc1cc(Nc2c(C#N)cnc3cc(-c4ccc(CNCCS(C)(=O)=O)n4C)ccc23)c(Cl)cc1Cl [Example 73, 4-(2,4-Dichloro-5-methoxyanilino)-7-[1-methyl-5-({[2-(methylsulfonyl)ethyl]amino}methyl)-1H-pyrrol-2-yl]-3-quinolinecarbonitrile]",7.24 and 7.12,< 5.00,–,–
COc1cc(Nc2c(C#N)cnc3cc(-c4ccc(CNCCc5ccccn5)o4)ccc23)c(Cl)cc1Cl [Example 74],7.40,–,5.85,–
"COc1cc(Nc2c(C#N)cnc3cc(-c4ccc(CN5CCN(CCO)CC5)o4)ccc23)c(Cl)cc1Cl [Example 75, 4-(2,4-Dichloro-5-methoxyanilino)-7-(5-{[4-(2-hydroxyethyl)-1-piperazinyl]methyl}-2-furyl)-3-quinolinecarbonitrile]",7.62,6.54,–,–
"COc1cc(Nc2c(C#N)cnc3cc(-c4ccc(CN(CCO)CCO)o4)ccc23)c(Cl)cc1Cl [Example 76, 7-(5-{[Bis(2-hydroxyethyl)amino]methyl}-2-furyl)-4-(2,4-dichloro-5-methoxyanilino)-3-quinolinecarbonitrile]",7.66,5.96,–,–
"COc1cc(Nc2c(C#N)cnc3cc(-c4ccc(CNCCS(C)(=O)=O)o4)ccc23)c(Cl)cc1Cl [Example 77, 4-(2,4-Dichloro-5-methoxyanilino)-7-[5-({[2-(methylsulfonyl)ethyl]amino}methyl)-2-furyl]-3-quinolinecarbonitrile]",7.68,6.38,–,–
"COc1cc(Nc2c(C#N)cnc3cc(-c4ccc(CN5CCCCC5)s4)ccc23)c(Cl)cc1Cl [Example 78, 4-(2,4-Dichloro-5-methoxyanilino)-7-[5-(1-piperidinylmethyl)-2-thienyl]-3-quinolinecarbonitrile]",8.89,6.85,–,–
"COc1cc(Nc2c(C#N)cnc3cc(-c4csc(CN5CCOCC5)c4)ccc23)c(Cl)cc1F [Example 79, 4-(2-chloro-4-fluoro-5-methoxyanilino)-7-[5-(4-morpholinylmethyl)-3-thienyl]-3-quinolinecarbonitrile]",8.77,6.89,–,–
"COc1cc(Nc2c(C#N)cnc3cc(-c4csc(CN5CCOCC5)c4)ccc23)c(Cl)cc1C [Example 80, 4-{2-Chloro-5-methoxy-4-methylanilino)-7-[5-(4-morpholinylmethyl)-3-thienyl]-3-quinolinecarbonitrile]",8.82,7.10,–,–
"COc1cc(Nc2c(C#N)cnc3cc(-c4cc(CN5CCOCC5)c(CN5CCOCC5)s4)c(OC)cc23)c(Cl)cc1Cl [Example 82, 7-[4,5-Bis(4-morpholinylmethyl)-2-thienyl]-4-(2,4-dichloro-5-methoxyanilino)-6-methoxy-3-quinolinecarbonitrile]",9.32,7.30,–,–
"COc1cc(Nc2c(C#N)cnc3cc(-c4ccc(C=O)cc4)ccc23)c(Cl)cc1Cl [Example 83, 4-(2.4-Dichloro-5-methoxyanilino)-7-(4-formylphenyl)-3-quinolinecarbonitrile]",7.38,5.41,–,–
"COc1cc(Nc2c(C#N)cnc3cc(-c4ccc(CNCCS(=O)(=O)c5ccccc5)cc4)ccc23)c(Cl)cc1Cl [Example 85, 4-(2,4-Dichloro-5-methoxyanilino)-7-[4-({[2-(phenylsulfonyl)ethyl]amino}methyl)phenyl]-3-quinolinecarbonitrile]",7.44 and 7.39,4.99,–,–
"COc1cc(Nc2c(C#N)cnc3cc(-c4ccc(CN(C)C)cc4)ccc23)c(Cl)cc1Cl [Example 86, 4-(2,4-Dichloro-5-methoxyanilino)-7-{4-[(dimethylamino)methyl]phenyl}-3-quinolinecarbonitrile]",8.96,6.68,–,–
"CCN(CC)Cc1ccc(-c2ccc3c(Nc4cc(OC)c(Cl)cc4Cl)c(C#N)cnc3c2)cc1 [Example 87, 4-(2,4-Dichloro-5-methoxyanilino)-7-{4-[(diethylamino)methyl]phenyl}-3-quinolinecarbonitrile]",9.34,6.66,–,–
"COc1cc(Nc2c(C#N)cnc3cc(-c4ccc(CNCCS(C)(=O)=O)cc4)ccc23)c(Cl)cc1Cl [Example 88, 4-(2,4-Dichloro-5-methoxyanilino)-7-[4-({[2-(methylsulfonyl)ethyl]amino}methyl)phenyl]-3-quinolinecarbonitrile]",8.52,6.07,–,–
"COc1ccc(C#Cc2ccc3c(Nc4cc(OC)c(Cl)cc4Cl)c(C#N)cnc3c2)cc1 [Example 90, 4-(2,4-Dichloro-5-methoxyanilino)-7-[2-(4-methoxyphenyl)ethynyl]-3-quinolinecarbonitrile]",–,< 5.00,–,10%
"COc1cc(Nc2c(C#N)cnc3cc(C#Cc4ccccn4)ccc23)c(Cl)cc1Cl [Example 91, 4-(2,4-Dichloro-5-methoxyanilino)-7-[2-(2-pyridinyl)ethynyl]-3-quinolinecarbonitrile]",8.51,< 5.00,–,–
COc1cc(Nc2c(C#N)cnc3cc(-n4cccc4CN(C)C)ccc23)c(Cl)cc1Cl [Example 93],6.21 and 6.17,–,< 5.00,–
"COc1cc(Nc2c(C#N)cnc3cc(/C=C/C(=O)O)ccc23)c(Cl)cc1Cl [Example 99, (E)-3-[3-Cyano-4-(2,4-dichloro-5-methoxyanilino)-7-quinolinyl]-2-propenoic acid]",7.36,< 5.00,–,–
"COc1cc(Nc2c(C#N)cnc3cc(-c4ccc(CN5CCC(CC(=O)O)CC5)cc4)ccc23)c(Cl)cc1Cl [Example 100, (1-{4-[3-Cyano-4-(2,4-dichloro-5-methoxyanilino)-7-quinolinyl]benzyl}-4-piperidinyl)acetic acid]",9.24,6.47,6.40,–
